# In US10377753B2, “Substituted 4-azaindoles and their use as GluN2B receptor modulators” (Janssen Pharmaceutica NV, priority 2015, dated 2019):
# pIC50: −log10 of the molar value.
# Target: cloned human NR1/NR2B ion channels (Homo sapiens (Human), UniProt Q05586+Q13224)
# Test: HNR2BC: effects of test articles on cloned human NR1/NR2B ion channels expressed in mammalian cells (FLIPR calcium flux)
# Format: cell-based
# Settings: cloned human NR1/NR2B ion channels, Table 5
# How it was run: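 In a stable Tet-On-induced cell line expressing human GluN1/GluN2B, Calcium 5-loaded cells were preincubated 5 min with compound, then stimulated 5 min with glutamate at ~EC80 plus 10 μM glycine, in pH 7.4 HEPES buffer. FLIPR calcium fluorescence was normalized to control wells.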
# cloned human NR1/NR2B ion channels, sequence (Q13224 27-1484, other chains not shown): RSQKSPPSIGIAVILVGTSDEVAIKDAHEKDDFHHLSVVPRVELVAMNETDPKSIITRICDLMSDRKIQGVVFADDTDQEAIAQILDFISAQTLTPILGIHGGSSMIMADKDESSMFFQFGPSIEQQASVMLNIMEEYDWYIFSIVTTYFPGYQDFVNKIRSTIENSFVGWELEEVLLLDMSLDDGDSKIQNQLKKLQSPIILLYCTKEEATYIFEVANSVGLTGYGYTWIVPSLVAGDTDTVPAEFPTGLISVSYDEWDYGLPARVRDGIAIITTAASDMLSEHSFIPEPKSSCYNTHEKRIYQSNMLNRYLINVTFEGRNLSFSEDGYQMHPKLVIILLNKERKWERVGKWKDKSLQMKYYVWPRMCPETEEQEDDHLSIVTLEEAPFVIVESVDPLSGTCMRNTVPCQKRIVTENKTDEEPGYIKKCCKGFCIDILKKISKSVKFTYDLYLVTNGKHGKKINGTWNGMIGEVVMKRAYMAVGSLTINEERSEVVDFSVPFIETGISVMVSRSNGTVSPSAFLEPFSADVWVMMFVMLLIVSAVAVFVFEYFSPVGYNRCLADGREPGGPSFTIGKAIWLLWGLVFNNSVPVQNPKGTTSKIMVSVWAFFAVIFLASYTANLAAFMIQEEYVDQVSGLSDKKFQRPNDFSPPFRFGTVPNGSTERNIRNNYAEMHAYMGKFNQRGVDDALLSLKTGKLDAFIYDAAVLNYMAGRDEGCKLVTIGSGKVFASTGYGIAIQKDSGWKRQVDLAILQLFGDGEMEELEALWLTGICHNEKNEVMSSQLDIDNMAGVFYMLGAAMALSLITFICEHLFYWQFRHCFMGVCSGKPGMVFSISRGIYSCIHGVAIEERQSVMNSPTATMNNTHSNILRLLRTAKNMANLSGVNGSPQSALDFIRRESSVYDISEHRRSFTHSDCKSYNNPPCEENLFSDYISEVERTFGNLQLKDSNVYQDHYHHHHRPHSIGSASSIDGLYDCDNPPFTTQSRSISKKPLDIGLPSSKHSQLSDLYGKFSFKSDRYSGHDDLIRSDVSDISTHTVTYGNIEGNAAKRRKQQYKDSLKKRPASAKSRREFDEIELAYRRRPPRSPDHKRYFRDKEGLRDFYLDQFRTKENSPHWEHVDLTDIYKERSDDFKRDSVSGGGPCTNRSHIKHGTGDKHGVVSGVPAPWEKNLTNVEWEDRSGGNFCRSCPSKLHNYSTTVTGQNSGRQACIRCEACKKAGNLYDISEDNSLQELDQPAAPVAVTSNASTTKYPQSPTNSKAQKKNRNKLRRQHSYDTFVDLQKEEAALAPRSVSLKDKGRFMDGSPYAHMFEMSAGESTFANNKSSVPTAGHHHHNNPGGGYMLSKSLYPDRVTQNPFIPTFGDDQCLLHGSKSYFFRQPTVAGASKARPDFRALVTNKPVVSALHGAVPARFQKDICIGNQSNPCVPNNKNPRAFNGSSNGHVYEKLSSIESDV
row,pIC50,Structure (SMILES)
1,7.90,"O=C(Cn1cc(Cl)c2ncc(-c3cc(F)cc(F)c3)cc21)N1CC(F)C1 [Example 537, 2-[3-Chloro-6-(3,5-difluorophenyl)pyrrolo[3,2-b]pyridin-1-yl]-1-(3-fluoroazetidin-1-yl)ethanone]"
2,7.10,"O=C(Cn1cc(Cl)c2ncc(-c3cccc(C(F)(F)F)c3F)cc21)N1CC(F)C1 [Example 538, 2-[3-Chloro-6-[2-fluoro-3-(trifluoromethyl)phenyl]pyrrolo[3,2-b]pyridin-1-yl]-1-(3-fluoroazetidin-1-yl)ethanone]"
3,7.60,"Cc1c(F)ccc(-c2cnc3c(Cl)cn(CC(=O)N4CC(F)C4)c3c2)c1F [Example 539, 2-[3-Chloro-6-(2,4-difluoro-3-methyl-phenyl)pyrrolo[3,2-b]pyridin-1-yl]-1-(3-fluoroazetidin-1-yl)ethanone]"
4,7.60,"O=C(Cn1cc(Cl)c2ncc(-c3ccc(F)c(Cl)c3)cc21)N1CC(F)C1 [Example 540, 2-[3-Chloro-6-(3-chloro-4-fluoro-phenyl)pyrrolo[3,2-b]pyridin-1-yl]-1-(3-fluoroazetidin-1-yl)ethanone]"
5,7.40,"O=C(Cn1cc(Cl)c2ncc(-c3cccc(Cl)c3F)cc21)N1CC(F)C1 [Example 541, 2-[3-Chloro-6-(3-chloro-2-fluoro-phenyl)pyrrolo[3,2-b]pyridin-1-yl]-1-(3-fluoroazetidin-1-yl)ethanone]"
6,7.50,"CCc1cccc(-c2cnc3c(Cl)cn(CC(=O)N4CC(F)C4)c3c2)c1 [Example 542, 2-[3-Chloro-6-(3-ethylphenyl)pyrrolo[3,2-b]pyridin-1-yl]-1-(3-fluoroazetidin-1-yl)ethanone]"
7,7.70,"O=C(Cn1cc(Cl)c2ncc(-c3cccc(F)c3)cc21)N1CC(F)C1 [Example 543, 2-[3-Chloro-6-(3-fluorophenyl)pyrrolo[3,2-b]pyridin-1-yl]-1-(3-fluoroazetidin-1-yl)ethanone]"
8,7.50,"CN(C)C(=O)Cn1cc(Cl)c2ncc(-c3cccc(Cl)c3F)cc21 [Example 544, 2-[3-Chloro-6-(3-chloro-2-fluoro-phenyl)pyrrolo[3,2-b]pyridin-1-yl]-N,N-dimethyl-acetamide]"
9,7.90,"O=C(Cn1cc(Cl)c2ncc(-c3cccc(Cl)c3)cc21)N1CC(F)C1 [Example 545, 2-[3-Chloro-6-(3-chlorophenyl)pyrrolo[3,2-b]pyridin-1-yl]-1-(3-fluoroazetidin-1-yl)ethanone]"
10,7.40,"O=C(Cn1cc(Cl)c2ncc(-c3cccc(C(F)F)c3)cc21)N1CC(F)C1 [Example 546, 2-[3-Chloro-6-[3-(difluoromethyl)phenyl]pyrrolo[3,2-b]pyridin-1-yl]-1-(3-fluoroazetidin-1-yl)ethanone]"
11,6.40,"Cc1cccc(-c2cnc3c(F)c(C)n(CC(=O)N4CCC4)c3c2)c1 [Example 547, 1-(Azetidin-1-yl)-2-[3-fluoro-2-methyl-6-(m-tolyl)pyrrolo[3,2-b]pyridin-1-yl]ethanone]"
12,7.10,"Cc1cn(CC(=O)N2CCC2)c2cc(-c3ccc(F)c(F)c3)cnc12 [Example 548, 1-(Azetidin-1-yl)-2-[6-(3,4-difluorophenyl)-3-methyl-pyrrolo[3,2-b]pyridin-1-yl]ethanone]"
13,7.10,"Cc1cn(CC(=O)N(C)C)c2cc(-c3ccc(F)c(F)c3)cnc12 [Example 549, 2-[6-(3,4-Difluorophenyl)-3-methyl-pyrrolo[3,2-b]pyridin-1-yl]-N,N-dimethyl-acetamide]"
14,6.90,"Cc1cccc(-c2cnc3c(C)cn(CC(=O)N4CC(F)C4)c3c2)c1 [Example 550, 1-(3-Fluoroazetidin-1-yl)-2-[3-methyl-6-(m-tolyl)pyrrolo[3,2-b]pyridin-1-yl]ethanone]"
15,7.20,"Cc1cn(CC(=O)N2CC(F)C2)c2cc(-c3ccc(F)c(F)c3)cnc12 [Example 551, 2-[6-(3,4-Difluorophenyl)-3-methyl-pyrrolo[3,2-b]pyridin-1-yl]-1-(3-fluoroazetidin-1-yl)ethanone]"
16,7.10,"Cc1cn(CC(=O)N2CCC2)c2cc(-c3cccc(C(F)(F)F)c3)cnc12 [Example 552, 1-(Azetidin-1-yl)-2-[3-methyl-6-[3-(trifluoromethyl)phenyl]pyrrolo[3,2-b]pyridin-1-yl]ethanone]"
17,7.10,"Cc1cn(CC(=O)N(C)C)c2cc(-c3cccc(C(F)(F)F)c3)cnc12 [Example 553, N,N-Dimethyl-2-[3-methyl-6-[3-(trifluoromethyl)phenyl]pyrrolo[3,2-b]pyridin-1-yl]acetamide]"
18,6.70,"Cc1cn(CC(=O)N2CC(F)C2)c2cc(-c3cccc(C(F)(F)F)c3)cnc12 [Example 554, 1-(3-Fluoroazetidin-1-yl)-2-[3-methyl-6-[3-(trifluoromethyl)phenyl]pyrrolo[3,2-b]pyridin-1-yl]ethanone]"
19,7.20,"Cc1cn(CC(=O)N(C)C)c2cc(-c3cc(F)cc(F)c3)cnc12 [Example 555, 2-[6-(3,5-Difluorophenyl)-3-methyl-pyrrolo[3,2-b]pyridin-1-yl]-N,N-dimethyl-acetamide]"
20,6.40,"Cc1cn(CC(=O)N2CCC2)c2cc(-c3cc(F)cc(F)c3)cnc12 [Example 556, 1-(Azetidin-1-yl)-2-[6-(3,5-difluorophenyl)-3-methyl-pyrrolo[3,2-b]pyridin-1-yl]ethanone]"

row,pIC50,Structure (SMILES)
1,6.90,"CCN(C)C(=O)Cn1cc(C)c2ncc(-c3cc(F)cc(F)c3)cc21 [Example 557, 2-[6-(3,5-Difluorophenyl)-3-methyl-pyrrolo[3,2-b]pyridin-1-yl]-N-ethyl-N-methyl-acetamide]"
2,7.10,"Cc1cn(CC(=O)N(C)C)c2cc(-c3ccc(F)cc3)cnc12 [Example 558, 2-[6-(4-Fluorophenyl)-3-methyl-pyrrolo[3,2-b]pyridin-1-yl]-N,N-dimethyl-acetamide]"
3,6.80,"CCN(C)C(=O)Cn1cc(C)c2ncc(-c3ccc(F)cc3)cc21 [Example 559, N-Ethyl-2-[6-(4-fluorophenyl)-3-methyl-pyrrolo[3,2-b]pyridin-1-yl]-N-methyl-acetamide]"
4,6.10,"CCN(C)C(=O)Cn1cc(C)c2ncc(-c3cccc(C)c3F)cc21 [Example 560, N-Ethyl-2-[6-(2-fluoro-3-methyl-phenyl)-3-methyl-pyrrolo[3,2-b]pyridin-1-yl]-N-methyl-acetamide]"
5,6.40,"Cc1cccc(-c2cnc3c(C)cn(CC(=O)N4CCC4)c3c2)c1F [Example 561, 1-(Azetidin-1-yl)-2-[6-(2-fluoro-3-methyl-phenyl)-3-methyl-pyrrolo[3,2-b]pyridin-1-yl]ethanone]"
6,7.30,"Cc1cccc(-c2cnc3c(C)cn(CC(=O)N(C)C)c3c2)c1F [Example 562, 2-[6-(2-Fluoro-3-methyl-phenyl)-3-methyl-pyrrolo[3,2-b]pyridin-1-yl]-N,N-dimethyl-acetamide]"
7,7.40,"Cc1cccc(-c2cnc3c(C)cn(CC(=O)N4CC(F)C4)c3c2)c1F [Example 563, 1-(3-Fluoroazetidin-1-yl)-2-[6-(2-fluoro-3-methyl-phenyl)-3-methyl-pyrrolo[3,2-b]pyridin-1-yl]ethanone]"
8,7.00,"Cc1cccc(-c2cnc3c(C)cn(CC(=O)N4CC(F)(F)C4)c3c2)c1F [Example 564, 1-(3,3-Difluoroazetidin-1-yl)-2-[6-(2-fluoro-3-methyl-phenyl)-3-methyl-pyrrolo[3,2-b]pyridin-1-yl]ethanone]"
9,6.90,"Cc1cccc(-c2cnc3c(C)cn(CC(=O)N4CCCC4)c3c2)c1F [Example 565, 2-[6-(2-Fluoro-3-methyl-phenyl)-3-methyl-pyrrolo[3,2-b]pyridin-1-yl]-1-pyrrolidin-1-yl-ethanone]"
10,7.30,"Cc1cc(-c2cnc3c(C)cn(CC(=O)N(C)C)c3c2)ccc1F [Example 566, 2-[6-(4-Fluoro-3-methyl-phenyl)-3-methyl-pyrrolo[3,2-b]pyridin-1-yl]-N,N-dimethyl-acetamide]"
11,6.70,"Cc1cn(CC(=O)N2CCCC2)c2cc(-c3cccc(C(F)(F)F)c3)cnc12 [Example 567, 2-[3-Methyl-6-[3-(trifluoromethyl)phenyl]pyrrolo[3,2-b]pyridin-1-yl]-1-pyrrolidin-1-yl-ethanone]"
12,6.30,"CCN(C)C(=O)Cn1cc(C)c2ncc(-c3cccc(C(F)(F)F)c3)cc21 [Example 568, N-Ethyl-N-methyl-2-[3-methyl-6-[3-(trifluoromethyl)phenyl]pyrrolo[3,2-b]pyridin-1-yl]acetamide]"
13,6.40,"Cc1cn(CC(=O)N2CC(F)(F)C2)c2cc(-c3cccc(C(F)(F)F)c3)cnc12 [Example 569, 1-(3,3-Difluoroazetidin-1-yl)-2-[3-methyl-6-[3-(trifluoromethyl)phenyl]pyrrolo[3,2-b]pyridin-1-yl]ethanone]"
14,7.20,"Cc1cn(CC(=O)N2CCC2)c2cc(-c3cc(F)c(F)c(F)c3)cnc12 [Example 570, 1-(Azetidin-1-yl)-2-[3-methyl-6-(3,4,5-trifluorophenyl)pyrrolo[3,2-b]pyridin-1-yl]ethanone]"
15,7.30,"Cc1cn(CC(=O)N(C)C)c2cc(-c3cc(F)c(F)c(F)c3)cnc12 [Example 571, N,N-Dimethyl-2-[3-methyl-6-(3,4,5-trifluorophenyl)pyrrolo[3,2-b]pyridin-1-yl]acetamide]"
16,7.10,"Cc1cccc(-c2cnc3c(C)cn(CC(=O)N(C)C)c3c2)c1 [Example 572, N,N-Dimethyl-2-[3-methyl-6-(m-tolyl)pyrrolo[3,2-b]pyridin-1-yl]acetamide]"
17,6.90,"Cc1csc(-c2cnc3c(C)cn(CC(=O)N(C)C)c3c2)c1 [Example 573, N,N-Dimethyl-2-[3-methyl-6-(4-methyl-2-thienyl)pyrrolo[3,2-b]pyridin-1-yl]acetamide]"
18,7.10,"Cc1csc(-c2cnc3c(C)cn(CC(=O)N4CCC4)c3c2)c1 [Example 574, 1-(Azetidin-1-yl)-2-[3-methyl-6-(4-methyl-2-thienyl)pyrrolo[3,2-b]pyridin-1-yl]ethanone]"
19,7.10,"Cc1csc(-c2cnc3c(C)cn(CC(=O)N4CC(F)C4)c3c2)c1 [Example 575, 1-(3-Fluoroazetidin-1-yl)-2-[3-methyl-6-(4-methyl-2-thienyl)pyrrolo[3,2-b]pyridin-1-yl]ethanone]"
